Reference: patent US11911394B2, “Compound and method for the prevention of transmission of influenza virus” (Hoffmann-La Roche Inc., priority 2019, dated 2024)

How the values were obtained:
Format in all cases: in vivo
[1] = system: influenza A virus A/England/195/2009; assay: Example 1 ferret transmission study (direct contact and respiratory droplet), plaque assay of nasal wash; conditions: for Donor ferrets positive for influenza as detected by the plaque assay: donor ferrets treated 24 h post infection; for Donor ferrets positive for influenza as detected by the plaque assay / Sentinel DC ferrets positive for influenza as detected by the plaque assay / Sentinel RD ferrets positive for influenza as detected by the plaque assay: positive/total; for respiratory droplet transmission: from treated donor ferrets to sentinels; for mean time to virus shedding, direct contact sentinels: sentinels exposed to treated donors, control 4.25 days; for Sentinel DC ferrets positive for influenza as detected by the plaque assay: untreated direct contact sentinels of treated donors; for mean time to virus shedding, respiratory droplet exposed sentinels: untreated donors 4.5 days, baloxavir value from the one infected sentinel; for Sentinel RD ferrets positive for influenza as detected by the plaque assay: untreated respiratory droplet sentinels of treated donors
[2] = system: influenza A virus A/England/195/2009; assay: Example 1 ferret transmission study, real-time RT-PCR of nasal wash; conditions: positive/total; for Sentinel DC ferrets positive for influenza as detected by the qRT-PCR: direct contact sentinels; for Sentinel RD ferrets positive for influenza as detected by the qRT-PCR: respiratory droplet sentinels
Description: In this experiment baloxavir was administered once to ferrets as s.c. suspension with 1 mg/kg at 4 different locations in the back. Oseltamivir phosphate (5 mg/kg) was orally administered twice daily for 5 days.
24 hours post infection, the 4 infected ferrets were nasal washed. Nasal washes were assayed immediately by plaquing on fresh MDCK cells for infectious virus and carrying out RT-PCR for viral RNA load. Each donor ferret was then treated with either baloxavir, oseltamivir phosphate or vehicle only. Baloxavir was administered once subcutaneously in 4 locations on the back with 1 mg/l mL/kg per injection (total 4 mg/4 mL/kg). After dosing of baloxavir blood samples (minimum 200 μl) were collected from the donor animals at 48 h and 144 h, respectively, for pharmacokinetics (PK) analysis.
A 5 mg/kg dose of oseltamivir phosphate was orally administered twice daily for 5 days, which is considered to be equivalent to the standard human adult dose of 75 mg for treatment (J Antimicrob Chemother 2014; 69: 2458-2469). After drug administration on day 1 one sentinel animal was introduced into same cage as each infected donor (DC animal) and one sentinel animal was introduced into adjacent cage (RD animal). Sentinel animals were not treated with any drug.
All ferrets were nasal washed on day 2 and every subsequent day until experiment end starting with RD animals, then DC animals, and finishing with donors. Plaque assay was performed immediately on nasal wash. Virus RNA was also monitored by RT-PCR. Daily observation of clinical signs including temperature, weight loss and respiratory signs was performed. In addition, virus exhaled in breath from the 4 donor animals was monitored by placing them in a chamber for 10 minutes and sampling air using sentinel MDCK cells.
140 μl of ferret nasal wash was used to extract RNA using the Qiagen Viral RNA mini kit (Cat No./ID: 52904), according to manufacturer's instructions.
Real-time PCR was performed using 7500 Real Time PCR system (ABI) in 20 μl reactions using AgPath-ID™ One-Step RT-PCR Reagents 10 μl RT-PCR buffer (2×) (Thermo Fisher, Cat. No. 4387391), 4 μl of RNA, 0.8 μl forward (5′[…] 3′, SEQ ID NO:1) and reverse primers (5′ […]3′, SEQ ID NO:2) and 0.4 μl probe (5′ FAM-[…]-BHQ1 3′, SEQ ID NO:3). Reverse transcription was carried out at 45° C. for 10 min. PCR amplification conditions consisted of 95° C. for 15 s and 60° C. for 1 min after an initial denaturation step at 95° C. for 10 min. In total 40 cycles were performed. For each sample, the Ct value for the target M gene was determined. M gene is an influenza gene encoding the 2 Matrix proteins M1 and M2. The M gene is detected in PCR and can be used to quantify the influenza virus. Based on the standard curves, absolute copy numbers were calculated to establish if the ferret was positive for influenza A.

[3] = system: Influenza A/Perth/265/2009 H1N1pdm09 virus; assay: Example 2 ferret contact transmission study, TCID50 assay of nasal wash; conditions: for treated donors TCID50-positive (shedding detectable infectious virus) at donor endpoint: Example 2, all experiment schedules (Experiments 1-3); for recipient ferrets shedding detectable infectious virus (TCID50) following contact exposure to donor: donor treated 1 DPI; for recipient ferrets shedding detectable infectious virus (TCID50) following contact exposure to donor / donors shedding detectable infectious virus (TCID50) at 3 DPI endpoint / donors shedding detectable infectious virus (TCID50) at 4 DPI endpoint / ferrets shedding infectious virus (TCID50), FIG. 13A recipient results / donors shedding infectious virus (TCID50) at 4 DPI endpoint: positive/total; for donors shedding detectable infectious virus (TCID50) at 3 DPI endpoint / donors shedding detectable infectious virus (TCID50) at 4 DPI endpoint: treatment 1 DPI; for donor group titer (TCID50) compared to placebo group: baloxavir at 2 DPI (p≤0.05), 3 DPI and 4 DPI (p≤0.001), oseltamivir on 2-4 DPI; for ferrets shedding infectious virus (TCID50), FIG. 13A recipient results: donor treated 2 DPI, printed as donors at 4 DPI endpoint; for donors shedding infectious virus (TCID50) at 4 DPI endpoint: treatment 2 DPI; for effect of donor treatment on contact transmission to naïve ferrets: Example 2 Experiments 1-3
A/Perth/265/2009 virus = assay: Example 2 ferret contact transmission study, serology (HI assay) of recipient sera; conditions: for recipients demonstrating antibody responses to donor virus (serology): positive/total
Excerpt: Sera were collected from endpoint recipient blood samples by centrifugation, and non-specific inhibitors of agglutination were removed by treatment with receptor-destroying enzyme (RDE) (Denka Seiken) according to manufacturer's instructions. Treated sera were adsorbed with turkey RBCs prior to HI assay to remove non-specific agglutination factors. Briefly, sera (initially 1:20 dilution) were serially diluted twofold in PBS in V-bottom 96-well plates (final row left as PBS negative control). A/Perth/265/2009 virus adjusted to 4 haemagglutination units in 25 μL was mixed to all sample wells for 1 hr incubation at room temperature, followed by 45 min incubation of 1% turkey RBC. […] HI titre was calculated as the reciprocal of the highest serum dilution at which agglutination was inhibited.
This study consisted of three separate Experiments using different schedules of antiviral treatment and timing of naïve animal co-housing. In each experiment, twenty-four ferrets were randomly assigned to three groups (n=8): BXA, OST and placebo. Within each group, n=4 ferrets were designated as treated donor ferrets, and n=4 as naïve recipients. On 0 DPI (days post inoculation) for each experiment, all donor ferrets (each individually housed) were intranasally inoculated with influenza A/Perth/265/2009 at […] tissue culture infective doses (TCID50) in 40 μL of phosphate-buffered saline (PBS). As described above, donors in the BXA and placebo groups received a single antiviral treatment, whereas OST-group donors were treated daily until endpoint (excluding cull day). At the designated time point, naïve recipient ferrets were co-housed with treated donor ferrets (1:1 per cage) for a contact exposure period of 48 hr.
(§1) Experiment 2: Antiviral treatment commenced at 1 DPI, and recipient co-housing was delayed until 24 hr following treatment (2 DPI). Body weight and temperature were monitored daily from all animals. Daily nasal wash samples were collected using 1 mL of PBS from 1 DPI to 4 DPI for donor animals, and 1 DPE to 10 DPE for recipient animals. Donors were sacrificed at 4 DPI (2 DPE), and blood was collected from BXA- and placebo-treated ferrets by cardiac puncture. Recipients were maintained until 16 DPE, at which time blood was collected by cardiac puncture.
as §1, with “Experiment 3:” for “Experiment 2:”, “at 2” for “at 1”, “and recipients were co-housed immediately afterwards.” for “and recipient co-housing was delayed until 24 hr following treatment (2 DPI).”

[4] = Example 2 Experiment 1, baloxavir at 2 DPI (p≤0.05) and 3 DPI (p≤0.001)
[5] = Example 2 Experiment 1, co-housing 1 DPI
[6] = Example 2 Experiment 2, co-housing 2 DPI
[7] = Example 2 Experiment 3, baloxavir at 3 and 4 DPI (p≤0.001), oseltamivir on 3 DPI (p≤0.05)
[8] = Example 2 Experiment 3, co-housing 2 DPI

SMILES | Donor ferrets positive for influenza as detected by the plaque assay [1] | respiratory droplet transmission [1] [%] | mean time to virus shedding, direct contact sentinels [1] [days] | Sentinel DC ferrets positive for influenza as detected by the plaque assay [1] | mean time to virus shedding, respiratory droplet exposed sentinels [1] [days] | Sentinel RD ferrets positive for influenza as detected by the plaque assay [1] | Sentinel DC ferrets positive for influenza as detected by the qRT-PCR [2] | Donor ferrets positive for influenza as detected by the qRT-PCR [2] | Sentinel RD ferrets positive for influenza as detected by the qRT-PCR [2] | treated donors TCID50-positive (shedding detectable infectious virus) at donor endpoint [3] | donor group titer (TCID50) compared to placebo-group [3, 4] | recipient ferrets shedding detectable infectious virus (TCID50) following contact exposure to donor [3, 5] | donors shedding detectable infectious virus (TCID50) at 3 DPI endpoint ([3]; Example 2 Experiment 1) | donor group titer (TCID50) compared to placebo group ([3]; Example 2 Experiment 2) | recipient ferrets shedding detectable infectious virus (TCID50) following contact exposure to donor [3, 6] | donors shedding detectable infectious virus (TCID50) at 4 DPI endpoint ([3]; Example 2 Experiment 2) | donor group titer (TCID50) compared to placebo-group [3, 7] | ferrets shedding infectious virus (TCID50), FIG. 13A recipient results [3, 8] | donors shedding infectious virus (TCID50) at 4 DPI endpoint ([3]; Example 2 Experiment 3) | effect of donor treatment on contact transmission to naïve ferrets [3] | other results
CCOC(=O)C1=C[C@@H](OC(CC)CC)[C@H](NC(C)=O)[C@@H](N)C1 [oseltamivir, oseltamivir phosphate, reference compound] | 4/4 | 100 | 5.5 | 4/4 | 9.3 | 3/4 | 4/4 | 4/4 | 4/4 | 4/4 | no significant difference | 4/4 | 4/4 | no difference | 4/4 | 4/4 | significantly lower | 4/4 | 4/4 | does not reduce | recipients demonstrating evidence of infection by TCID50, qRT-PCR and serology ([3]; Example 2, all experimental conditions): 100%; recipients demonstrating antibody responses to donor virus (serology) (A/Perth/265/2009 virus; Example 2 Experiment 2): 4/4
O=C1c2c(O)c(=O)ccn2N([C@@H]2c3ccccc3SCc3c2ccc(F)c3F)[C@@H]2COCCN12 [baloxavir, baloxavir acid] | 3/4 | 25 | 5.5 | 4/4 | 8 | 1/4 | 4/4 | 4/4 | 1/4 | 0/4 and No | significantly lower | 1/4 | 0/4 | significantly lower | 1/4 | 0/4 | significantly lower | 2/4 | 0/4 | reduces | mean viral titres compared to the placebo-group ([3]; Example 2, 24 hours following treatment, all experiment conditions (p≤0.05)): significantly reduced; frequency of infectious viral shedding in recipients ([3]; Example 2, donor treatment at 1 DPI): 25%; frequency of infectious viral shedding in recipients ([3]; Example 2, donor treatment at 2 DPI): 50%; infectious virus titers in the URT compared to both placebo and oseltamivir ([3]; Example 2, three independent experiments, single treatment of infected ferrets): significantly reduced; reduction in transmission ([3]; Example 2, treatment 48 hr post infection): 50%; reduction of transmission ([3]; Example 2, treatment within 24 hr of infection): 75%; donor group titer (TCID50) compared to oseltamivir group ([3]; Example 2 Experiment 2, 3-4 DPI (p≤0.01)): significantly lower; donor group titer (TCID50) compared to oseltamivir-group ([3]; Example 2 Experiment 3, 4 DPI (p≤0.001)): lower; reduction of antibody responses in TCID50-negative recipients compared to titres in placebo-group recipients (A/Perth/265/2009 virus; Example 2 Exp. 2 and 3): 16-32 fold; reduction of antibody response in TCID50-negative ferret compared to TCID50-positive ferrets (A/Perth/265/2009 virus; Example 2 Experiment 2, baloxavir-group recipient): > 32 fold change; recipients demonstrating antibody responses to donor virus (serology) (A/Perth/265/2009 virus; Example 2 Experiment 2): 2/4; reduction of antibody titres in TCID50-negative recipients compared to TCID50-positive ferrets (A/Perth/265/2009 virus; Example 2 Experiment 3, TCID50-negative baloxavir-group recipients (2/4)): > 16 fold change
